Where two headings read alike, the source gives them in different places.
How the values were obtained:
[1] = system: patients with Wilson disease (WD); assay: Study 301: Unified Wilson Disease Rating Scale (UWDRS Parts II, III); type: in vivo, human
Procedure: The UWDRS scoring system was developed specifically for the motor and movement disorders associated with chronic copper neurotoxicity in WD. Some individual items/subscales of the UWDRS Part III (arising from a chair, gait, handwriting, and speech) in addition to the UWDRS Parts I, II, and III overall, were assessed to further define the range of burdensome signs and symptoms of WD, so as to further understand the assessment of treatment effects on patients with WD. The UWDRS scores for consciousness (Part I) and abnormal neurologic examination findings (Part III) will be determined by a trained neurologist rater who is blinded to study treatment randomization. These scores were used to provide a rigorous dataset for evaluating changes from baseline.
Unified Wilson Disease Rating Scale (Parts I, II, and III): The UWDRS is a clinical rating scale designed to evaluate the neurological manifestations of WD that generally can be divided into 3 movement disorder syndromes: dystonic, ataxic, and Parkinsonian syndrome. The UWDRS comprises 3 parts: UWDRS Part I (level of consciousness, item 1), UWDRS Part II (a patient-reported review of daily activity items [disability], items 2 to 11), and UWDRS Part III (a detailed neurological examination, items 12 to 34).
The UWDRS Part I and Part III were assessed by a neurologist who is blinded to the treatment randomization, while UWDRS Part II may be reported to a non-blinded member of the study team by the patient, family member, or caregiver. The UWDRS has not been formally evaluated in adolescents. However, the components of Part I (level of consciousness), Part II (patient or caregiver-reported disability) and Part III (neurologic examination findings) were not fundamentally different between adults and adolescents. Patients aged 12 years and older were expected to be able to comply with UWDRS assessments.
There were trends toward stability/improvement for both treatment groups. […] As approximately 50% of patients had baseline UWDRS scores of 0, and those patients that did have scores greater than zero were relatively low in the respective UWDRS Part II (score range: 0-40) and UWDRS Part III (score range: 0-175) scale range, there was little room for improvement.

[2] = system: patients with Wilson disease (WD); assay: Study 301: Clinical Global Impression scales (CGI-I, CGI-S); type: in vivo, human
Source text: Clinical Global Impression-[…]: The Clinical Global Impression (CGI) rating scales were commonly used measures of symptom severity, treatment response, and the efficacy of treatments in treatment studies of adult and pediatric patients with mental disorders.
The Clinical Global Impression-Severity scale (CGI-S) is a 7-point scale that requires the clinician to rate the severity of the patient's illness at the time of assessment, relative to the clinician's past experience with patients who have the same diagnosis. Considering total clinical experience, a patient was assessed on severity of illness at the time of rating as: 1, normal, not at all ill; 2, borderline ill; 3, mildly ill; 4, moderately ill; 5, markedly ill; 6, severely ill; or 7, extremely ill.
While transformed CGI-I (TCGI-I) assesses how the WD patients condition changed compared to baseline, CGI-I may indicate the overall clinical improvement of the patients in the study compared to baseline for each treatment arm.

[3] = Study 301, patients symptomatic at baseline, Cohort 1
[4] = Study 301, patients symptomatic at baseline, Cohort 2
[5] = Study 301, patients symptomatic at baseline, Overall

Source text for albumin levels: Across the 301, 201, and 205 studies, 102 participants had cirrhosis at baseline.

Bis-choline tetrathiomolybdate [BC-TTM]
UWDRS Part II (0-40), Change from Baseline at 48 weeks, Mean ([1]; Study 301, Full Analysis Set): −0.6 | UWDRS Part II (0-40), Difference at 48 weeks, LSM (SE), BC-TTM vs SoC ([1]; Study 301, Full Analysis Set): 0.4 (0.51) | UWDRS Part III (0-175), Change from Baseline at 48 weeks, Mean ([1]; Study 301, Full Analysis Set): −2.20 | UWDRS Part III (0-175), Difference at 48 weeks, LSM (SE), BC-TTM vs SoC ([1]; Study 301, Full Analysis Set): −0.09 (1.322) | UWDRS Part III functional subscale (0-10), Change from Baseline at 48 weeks, Mean ([1]; Study 301, Full Analysis Set): −0.147 | UWDRS Part III functional subscale (0-10), Difference at 48 weeks, LSM (SE), BC-TTM vs SoC ([1]; Study 301, Full Analysis Set): −0.067 (0.1344) | UWDRS Part III-arising from chair (0-4), Change from Baseline at 48 weeks, Mean ([1]; Study 301, Full Analysis Set): 0.0 | UWDRS Part III-arising from chair (0-4), Difference at 48 weeks, LSM (SE), BC-TTM vs SoC ([1]; Study 301, Full Analysis Set): 0.0 (0.06) | UWDRS Part III-gait (0-10), Change from Baseline at 48 weeks, Mean ([1]; Study 301, Full Analysis Set): −0.06 | UWDRS Part III-gait (0-10), Difference at 48 weeks, LSM (SE), BC-TTM vs SoC ([1]; Study 301, Full Analysis Set): −0.15 (0.192) | UWDRS Part III-handwriting (0-4), Change from Baseline at 48 weeks, Mean ([1]; Study 301, Full Analysis Set): −0.1 | UWDRS Part III-handwriting (0-4), Difference at 48 weeks, LSM (SE), BC-TTM vs SoC ([1]; Study 301, Full Analysis Set): −0.1 (0.09) | UWDRS Part III-speech (0-4), Change from Baseline at 48 weeks, Mean ([1]; Study 301, Full Analysis Set): −0.1 | UWDRS Part III-speech (0-4), Difference at 48 weeks, LSM (SE), BC-TTM vs SoC ([1]; Study 301, Full Analysis Set): 0.0 (0.07) | key secondary efficacy endpoints, BC-TTM versus SoC ([1]; Study 301, after adjusting for multiplicity (hierarchical testing)): none of the key secondary efficacy endpoints were statistically significantly different | UWDRS Part III, Week 48 Change from Baseline, LSM Diff, BC-TTM vs SoC [1, 3]: −0.79 | UWDRS Part III, Week 48 Change from Baseline, Mean [1, 3]: −2.86 | UWDRS Part III, Week 48 Change from Baseline, Median [1, 3]: −2.00 | UWDRS Part III, Week 48 Change from Baseline, LSM ([1]; Study 301, patients symptomatic at baseline, Cohort 1, MMRM): −2.68 | UWDRS Part III, Week 48 Change from Baseline, LSM Diff (SE), BC-TTM vs SoC [1, 4]: 0.05 (5.041) | UWDRS Part III, Week 48 Change from Baseline, Mean [1, 4]: −3.10 | UWDRS Part III, Week 48 Change from Baseline, Median [1, 4]: −3.00 | UWDRS Part III, Week 48 Change from Baseline, LSM ([1]; Study 301, patients symptomatic at baseline, Cohort 2, MMRM): 1.43 | UWDRS Part III, Week 48 Change from Baseline, LSM Diff, BC-TTM vs SoC [1, 5]: −0.33 | UWDRS Part III, Week 48 Change from Baseline, Mean [1, 5]: −2.91 | UWDRS Part III, Week 48 Change from Baseline, Median [1, 5]: −2.00 | UWDRS Part III, Week 48 Change from Baseline, LSM ([1]; Study 301, patients symptomatic at baseline, Overall, MMRM): −1.54 | CGI-I scores at week 48 versus SoC ([2]; Study 301, FIG. 22): improvements | CGI-S (1-7, 1 is normal), Change from Baseline at 48 weeks, Mean ([2]; Study 301, Full Analysis Set): −0.5 | CGI-S, Difference at 48 weeks, LSM (SE), BC-TTM vs SoC ([2]; Study 301, Full Analysis Set): −0.2 (0.13) | T-CGI-I (−3 to 3, −3 is very much improved) at 48 weeks, Mean ([2]; Study 301, Full Analysis Set): −0.7 | T-CGI-I, Difference at 48 weeks, LSM (SE), BC-TTM vs SoC ([2]; Study 301, Full Analysis Set): −0.3 (0.15) | Albumin Level (albumin levels; Study 201 (normal 33-49), Participant 9, Baseline): 29 mg/dL | Albumin Level (albumin levels; Study 201 (normal 33-49), Participant 9, Week 48): 45 mg/dL | Albumin Level (albumin levels; Study 201 (normal 33-49), Participant 9, Week 150, early termination): 46 mg/dL | Albumin Level (albumin levels; Study 201 (normal 33-49), Participant 10, Baseline): 29 mg/dL | Albumin Level (albumin levels; Study 201 (normal 33-49), Participant 10, Week 48): 40 mg/dL | Albumin Level (albumin levels; Study 201 (normal 33-49), Participant 10, Week 98): 40 mg/dL | Albumin Level (albumin levels; Study 201 (normal 33-49), Participant 10, Week 163, early termination): 39 mg/dL | Albumin Level (albumin levels; Study 201 (normal 33-49), Participant 11, Baseline): 31 mg/dL | Albumin Level (albumin levels; Study 201 (normal 33-49), Participant 11, Week 48): 44 mg/dL | Albumin Level (albumin levels; Study 201 (normal 33-49), Participant 11, Week 98): 46 mg/dL | Albumin Level (albumin levels; Study 201 (normal 33-49), Participant 11, Week 150): 44 mg/dL | Albumin Level (albumin levels; Study 205 (normal 35-55), Participant 12, Baseline): 36 mg/dL | Albumin Level (albumin levels; Study 205 (normal 35-55), Participant 12, Day 43): 33 mg/dL | Albumin Level (albumin levels; Study 205 (normal 35-55), Participant 12, Day 57): 30 mg/dL | Albumin Level (albumin levels; Study 205 (normal 35-55), Participant 12, Day 169): 34 mg/dL | Albumin Level (albumin levels; Study 205 (normal 35-55), Participant 12, Day 253): 34 mg/dL | Albumin Level (albumin levels; Study 205 (normal 35-55), Participant 12, Day 337, early termination): 37 mg/dL | Albumin Level (albumin levels; Study 205 (normal 35-55), Participant 13, Baseline): 45 mg/dL | Albumin Level (albumin levels; Study 205 (normal 35-55), Participant 13, Day 345): 27 mg/dL | Albumin Level (albumin levels; Study 301 (normal 35-55), Participant 1, Baseline): 33 mg/dL | Albumin Level (albumin levels; Study 301 (normal 35-55), Participant 1, Week 48): 47 mg/dL | Albumin Level (albumin levels; Study 301 (normal 35-55), Participant 1, Week 96): 48 mg/dL | Albumin Level (albumin levels; Study 301 (normal 35-55), Participant 2, Baseline): 37 mg/dL | Albumin Level (albumin levels; Study 301 (normal 35-55), Participant 2, Week 48): 34 mg/dL | Albumin Level (albumin levels; Study 301 (normal 35-55), Participant 2, Week 60, early termination): 25 mg/dL | Albumin Level (albumin levels; Study 301 (normal 35-55), Participant 3, Baseline): 34 mg/dL | Albumin Level (albumin levels; Study 301 (normal 35-55), Participant 3, Week 48): 36 mg/dL | Albumin Level (albumin levels; Study 301 (normal 35-55), Participant 3, Week 60): 34 mg/dL | Albumin Level (albumin levels; Study 301 (normal 35-55), Participant 4, Baseline): 28 mg/dL | Albumin Level (albumin levels; Study 301 (normal 35-55), Participant 4, Week 48): 31 mg/dL | Albumin Level (albumin levels; Study 301 (normal 35-55), Participant 5, Baseline): 32 mg/dL | Albumin Level (albumin levels; Study 301 (normal 35-55), Participant 5, Week 48): 37 mg/dL | Albumin Level (albumin levels; Study 301 (normal 35-55), Participant 5, Week 96): 37 mg/dL | Albumin Level (albumin levels; Study 301 (normal 35-55), Participant 6, Baseline): 29 mg/dL | Albumin Level (albumin levels; Study 301 (normal 35-55), Participant 6, Week 24): 35 mg/dL | Albumin Level (albumin levels; Study 301 (normal 35-55), Participant 6, Week 48): 42 mg/dL | Albumin Level (albumin levels; Study 301 (normal 35-55), Participant 6, Week 96): 40 mg/dL | Albumin Level (albumin levels; Study 301 (normal 35-55), Participant 7, Baseline (Week 48 Extension Day 1)): 42 mg/dL | Albumin Level (albumin levels; Study 301 (normal 35-55), Participant 7, Week 8): 37 mg/dL | Albumin Level (albumin levels; Study 301 (normal 35-55), Participant 7, Week 24): 36 mg/dL | Albumin Level (albumin levels; Study 301 (normal 35-55), Participant 7, Week 30): 35 mg/dL | Albumin Level (albumin levels; Study 301 (normal 35-55), Participant 7, Week 48): 35 mg/dL | Albumin Level (albumin levels; Study 301 (normal 35-55), Participant 7, Week 144): 37 mg/dL | Albumin Level (albumin levels; Study 301 (normal 35-55), Participant 8, Baseline (Week 48 Extension Day 1)): 42 mg/dL | Albumin Level (albumin levels; Study 301 (normal 35-55), Participant 8, Week 120, early termination): 32 mg/dL | participants with cirrhosis at baseline who experienced changes in albumin levels (albumin levels; of 102, Studies 301, 201, 205): 13 participants | participants with cirrhosis at baseline whose albumin levels remained stable (albumin levels; of 102, Studies 301, 201, 205): 89 participants | participants with cirrhosis at baseline who maintained liver function (albumin levels) (albumin levels; of 102 participants): 87% | cirrhotic participants whose albumin levels returned to the normal range (albumin levels; of the 13 with changes in liver function): 7 participants

Reference: patent US20250082674A1, “METHODS OF TREATING COPPER METABOLISM-ASSOCIATED DISEASES OR DISORDERS” (priority 2021, published 2025)
